“And” between values parts separate entries of the source, which are not always exact repeats. Equal values may be shown once. Read-outs that look alike come from different tables or passages of the source. Blank lines part the entries; values can stand above or below the compound they belong to.
Columns and labels:
[1] = Stability of SDC-TRAPs in mouse plasma; format: in vitro ADME; settings: 37° C.
Protocol: SDC-TRAPs were incubated in mouse plasma for 1 h at 37° C. and assayed for integrity at 0, 0.25, 0.5 and 1 h to assess the stability of the SDC-TRAP, e.g., as compared to the effector and targeting compounds. Compound stability was determined using […].

[2] = system: HER2; assay: HER2 degradation assay with BT-474 cell line; format: cell-based, human; settings: BT-474 cells, overnight incubation
[3] = Tissue distribution of ganetespib in female CD-1 nu/nu mice bearing RERF human NSCLC xenografts; format: in vivo; settings: IV 50 mg/kg; for concentration at 5 min / concentration at 24 h / concentration at 6 h: female, CD-1 nu/nu, mouse
Description: To confirm the distribution of ganetespib in blood, livers, kidneys, brains, hearts, lungs and tumors after IV administration of ganetespib to female CD-1 nu/nu mice bearing RERF human NSCLC xenografts, and to examine metabolic profiles of ganetespib in plasma, red blood cells, and above tissues.
Test Articles: ganetespib
Animals: female CD-1 nu/nu mice bearing RERF human NSCLC xenografts (N=3/group)
Formulation: 10% DMSO, 18% Cremophor RH40, 3.6% dextrose solution (DRD)
Bleeding time points: 5 min, 6, 24 hr
Collected tissues: blood (plasma and red blood cells (RBC)), liver, kidneys, brain, heart, lung, tumor
Protein precipitation: 50 μL of 10 times diluted plasma or RBC+150 μL ACN (10 mM NH4OAc), vortexed and centrifuged at 10000 rpm for 8 min; 150 μL supernatant+150 μL water (10 mM NH4OAc)
Protein precipitation: 100 μL homogenized tissue (1:3 tissue: PBS buffer)+100 μL ACN (10 mM NH4OAc), vortexed and centrifuged at 10000 rpm for 8 min

% Remaining (1 h) [1]: 25.5%
IC50 [2]: 710 nM
Structure (SMILES): CC(C)C[C@H](NC(=O)[C@H](Cc1ccccc1)NC(=O)c1cnccn1)B1OC(C)(C)C(C)(c2ccc(C(=O)N3CCN(Cc4ccc(-n5c(O)nnc5-c5cc(C(C)C)c(O)cc5O)cc4)CC3)cc2)O1 (stereo partly drawn) [SDC-TRAP-0236, N-((2S)-1-(((1R)-1-(4-(4-(4-(4-(3-(2,4-dihydroxy-5-isopropylphenyl)-5-hydroxy-4H-1,2,4-triazol-4-yl)benzyl)piperazine-1-carbonyl)phenyl)-4,5,5-trimethyl-1,3,2-dioxaborolan-2-yl)-3-methylbutyl)amino)-1-oxo-3-phenylpropan-2-yl)pyrazine-2-carboxamide]

% Remaining (1 h) [1]: 84.2%
IC50 [2]: > 5000 nM
Structure (SMILES): CC(C)C[C@H](NC(=O)[C@H](Cc1ccccc1)NC(=O)c1cnccn1)B1OC(C)(C)C(C)(c2ccc(C(=O)N3CCC(CCn4ccc5cc(-n6c(O)nnc6-c6cc(C(C)C)c(O)cc6O)ccc54)CC3)cc2)O1 (stereo partly drawn) [SDC-TRAP-0237, N-((2S)-1-(((1R)-1-(4-(4-(4-(2-(5-(3-(2,4-dihydroxy-5-isopropylphenyl)-5-hydroxy-4H-1,2,4-triazol-4-yl)-1H-indol-1-yl)ethyl)piperidine-1-carbonyl)phenyl)-4,5,5-trimethyl-1,3,2-dioxaborolan-2-yl)-3-methylbutyl)amino)-1-oxo-3-phenylpropan-2-yl)pyrazine-2-carboxamide]

% Remaining (1 h) [1]: 24.0%
IC50 [2]: > 5000 nM
Structure (SMILES): CC(C)C[C@H](NC(=O)[C@H](Cc1ccccc1)NC(=O)c1cnccn1)B1OC(C)(C)C(C)(c2ccc(C(=O)N3CCN(c4ccc(-n5c(O)nnc5-c5cc(C(C)C)c(O)cc5O)cc4)CC3)cc2)O1 (stereo partly drawn) [SDC-TRAP-0238, N-((2S)-1-(((1R)-1-(4-(4-(4-(4-(3-(2,4-dihydroxy-5-isopropylphenyl)-5-hydroxy-4H-1,2,4-triazol-4-yl)phenyl)piperazine-1-carbonyl)phenyl)-4,5,5-trimethyl-1,3,2-dioxaborolan-2-yl)-3-methylbutyl)amino)-1-oxo-3-phenylpropan-2-yl)pyrazine-2-carboxamide]

% Remaining (1 h) [1]: 35.8%
IC50 [2]: > 5000 nM
Structure (SMILES): CC(C)C[C@H](NC(=O)[C@H](Cc1ccccc1)NC(=O)c1cnccn1)B1OC(C)(C)C(C)(c2ccc(C(=O)N3CCc4ccc(-n5c(O)nnc5-c5cc(C(C)C)c(O)cc5O)cc4C3)cc2)O1 (stereo partly drawn) [SDC-TRAP-0239, N-((2S)-1-(((1R)-1-(4-(4-(7-(3-(2,4-dihydroxy-5-isopropylphenyl)-5-hydroxy-4H-1,2,4-triazol-4-yl)-1,2,3,4-tetrahydroisoquinoline-2-carbonyl)phenyl)-4,5,5-trimethyl-1,3,2-dioxaborolan-2-yl)-3-methylbutyl)amino)-1-oxo-3-phenylpropan-2-yl)pyrazine-2-carboxamide]

% Remaining (1 h) [1]: 84.0%
IC50 [2]: > 5000 nM
Structure (SMILES): CCNC(=O)c1nnc(-c2cc(C(C)C)c(O)cc2O)n1-c1ccc2c(ccn2CCC2CCN(C(=O)c3ccc(C4(C)OB([C@H](CC(C)C)NC(=O)[C@H](Cc5ccccc5)NC(=O)c5cnccn5)OC4(C)C)cc3)CC2)c1 (stereo partly drawn) [SDC-TRAP-0240, N-((2S)-1-(((1R)-1-(4-(4-(4-(2-(5-(3-(2,4-dihydroxy-5-isopropylphenyl)-5-(ethylcarbamoyl)-4H-1,2,4-triazol-4-yl)-1H-indol-1-yl)ethyl)piperidine-1-carbonyl)phenyl)-4,5,5-trimethyl-1,3,2-dioxaborolan-2-yl)-3-methylbutyl)amino)-1-oxo-3-phenylpropan-2-yl)pyrazine-2-carboxamide]

IC50 [2]: 407 nM
Structure (SMILES): CC(C)C[C@H](NC(=O)[C@H](Cc1ccccc1)NC(=O)c1cnccn1)B1OC(C)(C)C(C)(c2ccc(C(=O)N3CCC(COc4ccc(-n5c(O)nnc5-c5cc(C(C)C)c(O)cc5O)cc4)CC3)cc2)O1 (stereo partly drawn) [SDC-TRAP-0242, N-((2S)-1-(((1R)-1-(4-(4-(4-((4-(3-(2,4-dihydroxy-5-isopropylphenyl)-5-hydroxy-4H-1,2,4-triazol-4-yl)phenoxy)methyl)piperidine-1-carbonyl)phenyl)-4,5,5-trimethyl-1,3,2-dioxaborolan-2-yl)-3-methylbutyl)amino)-1-oxo-3-phenylpropan-2-yl)pyrazine-2-carboxamide]

% Remaining (1 h) [1]: 44.2%
Structure (SMILES): CC(C)C[C@H](NC(=O)[C@H](Cc1ccccc1)NC(=O)c1cnccn1)B1O[C@H]2C[C@H]3C[C@H](C3(C)C)[C@@]2(CC(=O)N2CCC(CCn3ccc4cc(-n5c(O)nnc5-c5cc(C(C)C)c(O)cc5O)ccc43)CC2)O1 [SDC-TRAP-0245, N—((S)-1-(((R)-1-((3aR,4R,6R,7aS)-3a-(2-(4-(2-(5-(3-(2,4-dihydroxy-5-isopropylphenyl)-5-hydroxy-4H-1,2,4-triazol-4-yl)-1H-indol-1-yl)ethyl)piperidin-1-yl)-2-oxoethyl)-5,5-dimethylhexahydro-4,6-methanobenzo[d][1,3,2]dioxaborol-2-yl)-3-methylbutyl)amino)-1-oxo-3-phenylpropan-2-yl)pyrazine-2-carboxamide]

% Remaining (1 h) [1]: 34%
Structure (SMILES): CCNC(=O)c1nnc(-c2cc(C(C)C)c(O)cc2O)n1-c1ccc(CN2CCC(C(=O)N3CCC4(CC3)OB([C@H](CC(C)C)NC(=O)[C@H](Cc3ccccc3)NC(=O)c3cnccn3)OC4(C)C)CC2)cc1 [SDC-TRAP-0252, N—((S)-1-(((R)-1-(8-(1-(4-(3-(2,4-dihydroxy-5-isopropylphenyl)-5-(ethylcarbamoyl)-4H-1,2,4-triazol-4-yl)benzyl)piperidine-4-carbonyl)-4,4-dimethyl-1,3-dioxa-8-aza-2-boraspiro[4.5]decan-2-yl)-3-methylbutyl)amino)-1-oxo-3-phenylpropan-2-yl)pyrazine-2-carboxamide]

Mean concentration in plasma relative to that in RBC ([3]; 5 min): about 10 times
Concentration in tumor ([3]; 5 min, tumor): 2350 nM
Concentration in plasma ([3]; 24 hr, plasma): <LLOQ
concentration at 5 min ([3]; red blood cells, 5 min, RBC, read-out: Concentration in RBC): 6000 ng/mL and 16.5 µM
concentration at 24 h ([3]; red blood cells, 24 hr, RBC, read-out: Concentration in RBC): 3 ng/mL and 7 nM
concentration at 5 min ([3]; 5 min, brain, read-out: Concentration in brain): 530 nM and 190 ng/g
concentration at 5 min ([3]; 5 min, heart, read-out: Concentration in heart): 36.2 µM and 13200 ng/g
concentration at 5 min ([3]; 5 min, kidneys, read-out: Concentration in kidneys): 57.8 µM and 21100 ng/g
concentration at 5 min ([3]; 5 min, liver, read-out: Concentration in liver): 46.3 µM and 16900 ng/g
concentration at 5 min ([3]; 5 min, lung, read-out: Concentration in lung): 9240 ng/g and 25.4 µM
concentration at 5 min ([3]; 5 min, plasma, read-out: Concentration in plasma): 160 µM and 58400 ng/mL
concentration at 5 min ([3]; 5 min, tumor, read-out: Concentration in tumor): 860 ng/g and 2.35 µM
concentration at 6 h ([3]; brain, read-out: Concentration in brain): 70 ng/g and 180 nM
concentration at 6 h ([3]; heart, read-out: Concentration in heart): 50 ng/g and 130 nM
concentration at 6 h ([3]; kidneys, read-out: Concentration in kidneys): 60 ng/g and 150 nM
concentration at 6 h ([3]; liver, read-out: Concentration in liver): 140 ng/g and 390 nM
concentration at 6 h ([3]; lung, read-out: Concentration in lung): 50 ng/g and 140 nM
concentration at 6 h ([3]; plasma, read-out: Concentration in plasma): 120 nM and 40 ng/mL
concentration at 6 h ([3]; tumor, read-out: Concentration in tumor): 290 ng/g and 800 nM
concentration at 24 h ([3]; 24 hr, brain, read-out: Concentration in brain): 40 ng/g and 120 nM
concentration at 24 h ([3]; 24 hr, heart, read-out: Concentration in heart): 0 ng/g and 0 nM
concentration at 24 h ([3]; 24 hr, kidneys, read-out: Concentration in kidneys): 10 ng/g and 20 nM
concentration at 24 h ([3]; 24 hr, liver, read-out: Concentration in liver): 5 ng/g and 10 nM
concentration at 24 h ([3]; 24 hr, lung, read-out: Concentration in lung): 0 ng/g and 5 nM
concentration at 24 h ([3]; 24 hr, plasma, read-out: Plasma concentration (below the lower limit of quantitation)): < 2.5 nM
concentration at 24 h ([3]; 24 hr, tumor, read-out: Concentration in tumor): 850 nM and 310 ng/g
Structure (SMILES): CC(C)c1cc(-c2n[nH]c(=O)n2-c2ccc3c(ccn3C)c2)c(O)cc1O [ganetespib]

Reference: patent US10117944B2, “Targeted therapeutics” (Madrigal Pharmaceuticals, Inc., priority 2014, dated 2018)
